In patent US20110079775A1, “Solution Processable Organic Semiconductors” (priority 2008, published 2011) one finds solubility in dichlorobenzene, solubility in n-butylbenzene and solubility in xylene data, which are given here for one compound.

The format of the data set is physicochemical. Here is the method:
The solubility of B4MP-TIPS-An, which was synthesized in Example 1, was measured in various solvents at room temperature. This small molecule semiconductor had moderate solubility in n-butylbenzene (about 1.0 weight percent) and good solubility in dichlorobenzene (greater than 6.0 weight percent) and xylene (about 3.5 weight percent). The weight percent is based on the total solution weight.

In the case of `COc1ccc(-c2ccc3c(C#C[Si](C(C)C)(C(C)C)C(C)C)c4cc(-c5ccc(OC)cc5)ccc4c(C#C[Si](C(C)C)(C(C)C)C(C)C)c3c2)cc1` [Example B4MP-TIPS-An, 2,6-Bis(4-methoxy-phenyl)-9,10-bis-[(triisopropylsilyl)ethynyl]anthracene], the solubility in dichlorobenzene result is “greater than 6.0 weight percent”, the solubility in n-butylbenzene entry is listed as “about 1.0 weight percent” and the solubility in xylene result was “about 3.5 weight percent”.
